Structures are written as SMILES. Bounds are passed on as bounds.

In one assay the target is T1, CDK4/Cyclin D1 (Homo sapiens, UniProt P11802).
T1 construct: purchased ProQinase; host or cells: insect cell
Description: CDK4/CyclinD1 enzymatic activity assay (TR-FRET). The assay is classed as biochemical. The settings on record: ATP 2 mM final, read-out: CDK4_D1 IC50. The gist of the method: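 Insect-cell-expressed CDK4/Cyclin D1 (1 nM) phosphorylated ULight-4E-BP1 peptide (100 nM) at 2 mM ATP in HEPES pH 7.4 buffer after 20 min compound preincubation. Reaction started with 10 mM MgCl2, ran 45 min at 37 °C, then EDTA quench and Eu-anti-phospho-4E-BP1 TR-FRET detection. IC50 from 9-point 3-fold dilutions, 4-parameter fit.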
A general note: In TR-FRET formats the signal depends on donor and acceptor labels being close together.

Another assay relates to OVCAR3 p-RB. In words: pRB ICW assay in OVCAR3 cells. The assay is classed as cell-based. The note with it: Homo sapiens, OVCAR-3, incubated with compound for 2 hours. In short, it runs like this: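 OVCAR3 cells were treated 2 h at 37 °C with a 9-point half-log compound series, in duplicate, with 10 μM reference compound as maximum inhibition. Cells were then fixed, permeabilized and stained with anti-phospho-RB plus DRAQ5. In-cell western intensities were read at 700/800 nm on Odyssey CLx.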

Another assay deals with CDK2/Cyclin E2 (Homo sapiens, UniProt P24941). Description: CDK2/CyclinE2 enzymatic activity assay (TR-FRET). The assay is classed as biochemical. The settings on record: ATP 1 mM final, read-out: CDK2_E1 IC50. The gist of the method: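 Insect-cell-expressed CDK2/Cyclin E2 (1 nM), ULight-4E-BP1 (50 nM) and ATP (1 mM) in HEPES pH 7.4 buffer were preincubated 20 min at RT with compound (9-dose, 3-fold), started with 10 mM MgCl2 and run 45 min at 37 °C. EDTA/Eu-anti-P-4E-BP1 stop, 60 min TR-FRET detection; IC50 from 4-parameter Hill fit.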

T1 sequence (P11802 whole entry): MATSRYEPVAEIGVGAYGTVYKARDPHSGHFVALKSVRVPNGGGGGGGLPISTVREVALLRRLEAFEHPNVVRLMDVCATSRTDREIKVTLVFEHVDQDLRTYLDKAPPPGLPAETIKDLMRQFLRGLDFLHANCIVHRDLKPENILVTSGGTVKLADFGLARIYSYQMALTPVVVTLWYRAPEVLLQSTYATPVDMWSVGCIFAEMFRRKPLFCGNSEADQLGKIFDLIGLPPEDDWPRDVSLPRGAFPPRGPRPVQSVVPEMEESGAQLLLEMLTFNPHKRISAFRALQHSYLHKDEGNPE
T1 sequence (P24385 whole entry partner): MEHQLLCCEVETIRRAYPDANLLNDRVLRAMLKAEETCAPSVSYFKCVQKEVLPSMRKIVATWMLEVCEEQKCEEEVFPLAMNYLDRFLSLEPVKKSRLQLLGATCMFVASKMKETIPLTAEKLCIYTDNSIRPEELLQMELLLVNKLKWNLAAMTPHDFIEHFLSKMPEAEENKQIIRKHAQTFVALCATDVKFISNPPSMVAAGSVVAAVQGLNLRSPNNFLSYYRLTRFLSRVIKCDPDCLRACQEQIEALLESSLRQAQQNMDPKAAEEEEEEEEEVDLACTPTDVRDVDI

A word on the IC50: it is the midpoint of a concentration-inhibition curve. As for `Cn1cc(S(=O)(=O)N2CCC(Nc3ncc(C(F)(F)F)c(-c4cnc(C(O)C(F)F)s4)n3)CC2)cn1` (stereo not drawn) [Example 92, 2,2-difluoro-1-(5-(2-((1-((1-methyl-1H-pyrazol-4-yl)sulfonyl)piperidin-4-yl)amino)-5-(trifluoromethyl)pyrimidin-4-yl)thiazol-2-yl)ethan-1-ol], the IC50 at CDK4/Cyclin D1, in the assay with OVCAR3 p-RB and at CDK2/Cyclin E2 was at most 100 nM each time.
With `Cc1ncc(-c2nc(N[C@@H]3CCN(S(=O)(=O)c4cnn(C)c4)C[C@H]3F)ncc2C(F)(F)F)s1` [Example 93, N-((3R,4R)-3-fluoro-1-((1-methyl-1H-pyrazol-4-yl)sulfonyl)piperidin-4-yl)-4-(2-methylthiazol-5-yl)-5-(trifluoromethyl)pyrimidin-2-amine], the IC50 is at most 100 nM at CDK4/Cyclin D1, 100 to 1000 nM in the assay with OVCAR3 p-RB and at most 100 nM at CDK2/Cyclin E2.
With `Cc1ncc(-c2nc(N[C@H]3CCN(S(=O)(=O)c4cnn(C)c4)C[C@H]3F)ncc2C(F)(F)F)s1` [Example 94, N-((3R,4S)-3-fluoro-1-((1-methyl-1H-pyrazol-4-yl)sulfonyl)piperidin-4-yl)-4-(2-methylthiazol-5-yl)-5-(trifluoromethyl)pyrimidin-2-amine], the IC50 on CDK4/Cyclin D1, in the assay on OVCAR3 p-RB and at CDK2/Cyclin E2 was at most 100 nM throughout.
On to `Cn1cc(S(=O)(=O)N2CCC(Nc3ncc(C(F)(F)F)c(-c4cnc(C5(O)CCCC5)s4)n3)CC2)cn1` [Example 95, 1-(5-(2-((1-((1-methyl-1H-pyrazol-4-yl)sulfonyl)piperidin-4-yl)amino)-5-(trifluoromethyl)pyrimidin-4-yl)thiazol-2-yl)cyclopentan-1-ol], for which the IC50 at CDK4/Cyclin D1, in the assay on OVCAR3 p-RB and on CDK2/Cyclin E2 was at most 100 nM throughout.
With `C[C@@H]1CN(S(=O)(=O)c2cn(C)cn2)CC[C@@H]1Nc1ncc(C(F)(F)F)c(-c2cnc(C(C)(C)O)s2)n1` [Example 96, 2-(5-(2-(((3R,4S)-3-methyl-1-((1-methyl-1H-imidazol-4-yl)sulfonyl)piperidin-4-yl)amino)-5-(trifluoromethyl)pyrimidin-4-yl)thiazol-2-yl)propan-2-ol], the IC50 on CDK4/Cyclin D1 was 100 to 1000 nM; in the assay with OVCAR3 p-RB, at most 100 nM; at CDK2/Cyclin E2, at most 100 nM.
In the case of `CC(O)c1ncc(-c2nc(N[C@@H]3CCN(S(=O)(=O)c4cnn(C)c4)C[C@@H]3F)ncc2C(F)(F)F)s1` (stereo partly drawn) [Example 97, 1-(5-(2-(((3S,4R)-3-fluoro-1-((1-methyl-1H-pyrazol-4-yl)sulfonyl)piperidin-4-yl)amino)-5-(trifluoromethyl)pyrimidin-4-yl)thiazol-2-yl)ethan-1-ol], the IC50 at CDK4/Cyclin D1 was 100 to 1000 nM; in the assay on OVCAR3 p-RB, over 1000 nM; on CDK2/Cyclin E2, 100 to 1000 nM.
For `CC(O)c1ncc(-c2nc(N[C@H]3CCN(S(=O)(=O)c4cnn(C)c4)C[C@H]3F)ncc2C(F)(F)F)s1` (stereo partly drawn) [Example 98, 1-(5-(2-(((3R,4S)-3-fluoro-1-((1-methyl-1H-pyrazol-4-yl)sulfonyl)piperidin-4-yl)amino)-5-(trifluoromethyl)pyrimidin-4-yl)thiazol-2-yl)ethan-1-ol], the half-maximal inhibitory concentration (IC50) on CDK4/Cyclin D1, in the assay on OVCAR3 p-RB and at CDK2/Cyclin E2 was at most 100 nM in each case.
Regarding `CC(O)c1ncc(-c2nc(N[C@@H]3CCN(S(=O)(=O)c4cnn(C)c4)C[C@H]3F)ncc2C(F)(F)F)s1` (stereo partly drawn) [Example 99, 1-(5-(2-(((3R,4R)-3-fluoro-1-((1-methyl-1H-pyrazol-4-yl)sulfonyl)piperidin-4-yl)amino)-5-(trifluoromethyl)pyrimidin-4-yl)thiazol-2-yl)ethan-1-ol], the IC50 on CDK4/Cyclin D1 was at most 100 nM; in the assay with OVCAR3 p-RB, 100 to 1000 nM; on CDK2/Cyclin E2 it was at most 100 nM.
As for `CC(O)c1ncc(-c2nc(N[C@H]3CCN(S(=O)(=O)c4cnn(C)c4)C[C@@H]3F)ncc2C(F)(F)F)s1` (stereo partly drawn) [Example 100, 1-(5-(2-(((3S,4S)-3-fluoro-1-((1-methyl-1H-pyrazol-4-yl)sulfonyl)piperidin-4-yl)amino)-5-(trifluoromethyl)pyrimidin-4-yl)thiazol-2-yl)ethan-1-ol], the IC50 is 100 to 1000 nM at CDK4/Cyclin D1, over 1000 nM in the assay on OVCAR3 p-RB and at most 100 nM at CDK2/Cyclin E2.
`CC(O)c1ncc(-c2nc(N[C@H]3CCN(S(=O)(=O)c4cnn(C)c4)C[C@H]3C)ncc2C(F)(F)F)s1` (stereo partly drawn) [Example 102, 1-(5-(2-(((3R,4S)-3-methyl-1-((1-methyl-1H-pyrazol-4-yl)sulfonyl)piperidin-4-yl)amino)-5-(trifluoromethyl)pyrimidin-4-yl)thiazol-2-yl)ethan-1-ol]: the IC50 at CDK4/Cyclin D1 was 100 to 1000 nM; with OVCAR3 p-RB, 100 to 1000 nM; on CDK2/Cyclin E2, at most 100 nM.
For `CC(O)c1ncc(-c2nc(N[C@H]3CCN(S(=O)(=O)c4cnc(N)s4)C[C@H]3C)ncc2C(F)(F)F)s1` (stereo partly drawn) [Example 103, 1-(5-(2-(((3R,4S)-1-((2-aminothiazol-5-yl)sulfonyl)-3-methylpiperidin-4-yl)amino)-5-(trifluoromethyl)pyrimidin-4-yl)thiazol-2-yl)ethan-1-ol], the IC50 is 100 to 1000 nM at CDK4/Cyclin D1, over 1000 nM with OVCAR3 p-RB and at most 100 nM on CDK2/Cyclin E2.
Taken in the same sequence, the figures for `CC(O)c1ncc(-c2nc(N[C@H]3CCN(S(=O)(=O)c4c[nH]cn4)C[C@H]3C)ncc2C(F)(F)F)s1` (stereo partly drawn) [Example 104, 1-(5-(2-(((3R,4S)-1-((1H-imidazol-4-yl)sulfonyl)-3-methylpiperidin-4-yl)amino)-5-(trifluoromethyl)pyrimidin-4-yl)thiazol-2-yl)ethan-1-ol] were 100 to 1000 nM, 100 to 1000 nM and at most 100 nM.
